In the supplement of paper PMC10307832:

Columns and labels:
Assay in all cases: relative viability (nuclei count vs DMSO), 5 days (fraction); higher = more cells survive
[1] = compound: CN(c1ncccc1CNc1nc(Nc2ccc3c(c2)CC(=O)N3)ncc1C(F)(F)F)S(C)(=O)=O + CC1(C)CCC(c2ccc(Cl)cc2)=C(CN2CCN(c3ccc(C(=O)NS(=O)(=O)c4ccc(N[C@H](CCN5CCOCC5)CSc5ccccc5)c(S(=O)(=O)C(F)(F)F)c4)cc3)CC2)C1 [Navitoclax] (partner 0.5 µM)
Summary of the method: (§1)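 Each reported value is a median over duplicate plates. It expresses relative viability: treated-well nuclei count divided by vehicle-well nuclei count. Lung cancer cell lines in 1536-well plates were dosed by pin tool a day after seeding, alone with one drug or with a fixed anchor-drug dose plus five library-drug doses (not always all listed) in √10 steps, and nuclei were counted after 5 days.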

[2] = compound: CN(c1ncccc1CNc1nc(Nc2ccc3c(c2)CC(=O)N3)ncc1C(F)(F)F)S(C)(=O)=O + C[C@]1(O)C[C@@H](c2nc(-c3ccc4ccc(-c5ccccc5)nc4c3)c3c(N)nccn32)C1 [Linsitinib] (partner 1 µM)
Summary of the method: as §1

[3] = compound: CN(c1ncccc1CNc1nc(Nc2ccc3c(c2)CC(=O)N3)ncc1C(F)(F)F)S(C)(=O)=O + Nc1nc2[nH]cc(CCc3ccc(C(=O)N[C@@H](CCC(=O)O)C(=O)O)cc3)c2c(=O)[nH]1 [Pemetrexed] (partner 0.2 µM)
Summary of the method: as §1

[4] = compound: CN(c1ncccc1CNc1nc(Nc2ccc3c(c2)CC(=O)N3)ncc1C(F)(F)F)S(C)(=O)=O + O=C(CCCCCCC(=O)Nc1ccccc1)NO [Vorinostat] (partner 1 µM)
Summary of the method: as §1

Row | Cell Line | relative viability ([1]; first compound 0.01 µM) | relative viability ([1]; first compound 0.03162 µM) | relative viability ([1]; first compound 0.1 µM) | relative viability ([1]; first compound 0.3162 µM) | relative viability ([1]; first compound 1 µM) | relative viability ([2]; first compound 0.01 µM) | relative viability ([2]; first compound 0.03162 µM) | relative viability ([2]; first compound 0.1 µM) | relative viability ([2]; first compound 0.3162 µM) | relative viability ([2]; first compound 1 µM) | relative viability ([3]; first compound 0.01 µM) | relative viability ([3]; first compound 0.03162 µM) | relative viability ([3]; first compound 0.1 µM) | relative viability ([3]; first compound 0.3162 µM) | relative viability ([3]; first compound 1 µM) | relative viability ([4]; first compound 0.01 µM) | relative viability ([4]; first compound 0.03162 µM) | relative viability ([4]; first compound 0.1 µM) | relative viability ([4]; first compound 0.3162 µM) | relative viability ([4]; first compound 1 µM)
1 | HCC-366 | 1.03 | 1.18 | 1.08 | 1.04 | 0.927 | 0.488 | 0.913 | 0.591 | 0.576 | 0.508 | 0.219 | 0.172 | 0.164 | 0.172 | 0.186 | 0.412 | 0.394 | 0.365 | 0.366 | 0.295
2 | HCC-827 | 1.01 | 1 | 0.995 | 1.04 | 0.915 | 0.999 | 0.915 | 0.93 | 0.905 | 0.914 | 0.248 | 0.269 | 0.257 | 0.294 | 0.313 | 0.923 | 0.861 | 0.806 | 0.954 | 0.783
3 | HOP-62 | 1.18 | 1.07 | 0.94 | 1.04 | 0.934 | 0.843 | 1.09 | 1.06 | 0.786 | 0.933 | 0.34 | 0.337 | 0.289 | 0.418 | 0.28 | 0.759 | 0.769 | 0.574 | 0.732 | 0.596
4 | IA-LM | 0.712 | 0.726 | 0.786 | 0.788 | 0.654 | 0.6 | 0.54 | 0.583 |  | 0.599 |  |  |  |  |  | 0.991 | 1.12 | 0.801 | 0.859 | 0.86
5 | LC-2-ad | 0.556 | 0.479 | 0.433 | 0.364 | 0.322 | 0.85 | 0.784 | 0.862 | 0.786 | 0.847 | 0.283 | 0.3 | 0.274 | 0.285 | 0.274 | 0.739 | 0.756 | 0.674 | 0.635 | 0.584
6 | LCLC-97TM1 |  | 0.394 | 0.25 | 0.381 | 0.385 |  | 0.226 | 0.167 | 0.216 | 0.152 | 0.149 | 0.164 | 0.125 | 0.133 | 0.13 | 0.644 | 0.82 | 0.609 | 0.751 | 0.586
7 | LCLC-103H |  |  |  |  |  | 1.1 | 1.1 | 0.983 | 0.977 | 0.88 | 0.476 | 0.474 | 0.488 | 0.541 | 0.463 | 0.852 | 0.725 | 0.732 | 0.771 | 0.769
8 | LK-2 | 1.04 | 1.03 | 1.02 | 0.809 | 0.773 | 0.631 | 0.534 | 0.546 | 0.526 | 0.766 | 0.309 | 0.28 | 0.252 | 0.251 | 0.29 | 0.215 | 0.314 | 0.269 | 0.218 | 0.309
9 | LOU-NH91 | 0.695 | 0.751 | 0.772 | 0.762 | 0.793 | 0.988 | 1.02 | 1.02 | 1.08 | 1.11 | 0.423 | 0.368 | 0.375 | 0.382 | 0.338 | 0.957 | 0.99 | 0.852 | 0.907 | 0.976
10 | NCI-H358 |  |  |  |  |  | 0.739 | 0.727 | 0.626 | 0.705 | 0.666 | 0.148 | 0.164 | 0.169 | 0.177 | 0.156 | 0.65 | 0.704 | 0.692 | 0.573 | 0.421
11 | NCI-H522 |  |  |  |  |  |  |  |  |  |  | 1.21 | 0.923 | 1.03 | 0.899 | 1.06 | 0.906 | 1.06 | 0.919 | 0.973 | 0.961
12 | NCI-H650 |  |  |  |  |  | 0.948 | 0.696 | 0.644 | 0.764 | 0.76 | 0.884 | 0.935 | 0.826 | 1.04 | 0.621 | 0.454 | 0.565 | 0.557 | 0.415 | 0.303
13 | NCI-H661 |  |  |  |  |  | 0.657 | 0.722 | 0.563 | 0.679 | 0.637 | 0.869 | 0.941 | 0.885 | 0.832 | 0.833 | 0.763 | 0.84 | 0.744 | 0.786 | 0.759
14 | NCI-H727 | 0.429 | 0.438 | 0.435 | 0.378 | 0.322 | 0.317 | 0.305 | 0.352 | 0.273 | 0.21 |  |  |  |  |  | 1.26 | 1.29 | 1.23 | 1.08 | 1.34
15 | NCI-H1563 |  |  |  |  |  | 1.16 | 1.23 | 1.31 | 1.07 | 1.06 | 0.815 | 0.772 | 0.84 | 0.772 | 0.773 |  |  |  |  | 
16 | NCI-H1648 |  |  |  |  |  |  |  |  |  |  | 0.66 | 0.707 | 0.604 | 0.694 | 0.422 | 0.336 | 0.493 | 0.471 | 0.292 | 0.413
17 | NCI-H1650 | 1.26 | 1.39 | 1.39 |  | 0.76 |  |  |  |  |  | 0.379 | 0.321 | 0.432 | 0.384 | 0.318 | 0.682 | 0.513 | 0.581 | 0.586 | 0.69
18 | NCI-H1703 | 0.951 | 1.12 | 1.03 | 1.11 | 1.02 | 0.692 | 0.647 | 0.756 | 0.836 | 0.637 |  |  |  |  |  |  |  |  |  | 
19 | NCI-H1792 | 0.629 | 0.536 | 0.578 | 0.642 | 0.581 | 0.442 | 0.487 | 0.512 | 0.566 | 0.559 | 0.903 | 0.995 | 0.922 | 0.752 | 0.867 |  |  |  |  | 
20 | NCI-H2170 | 0.675 | 0.62 | 0.687 |  | 0.554 |  |  |  |  |  | 0.305 | 0.268 | 0.269 | 0.266 | 0.274 | 0.817 | 0.882 | 0.836 | 0.832 | 0.859
21 | NCI-H2342 |  |  |  |  |  |  |  |  |  |  | 0.775 | 0.885 | 0.801 | 0.789 | 0.757 | 0.772 | 0.848 | 0.696 | 0.646 | 0.803
22 | SW 900 |  |  |  |  |  |  |  |  |  |  | 0.49 | 0.459 | 0.477 | 0.484 | 0.51 | 0.535 | 0.511 | 0.594 | 0.661 | 0.562
